Source: article PMC11240139, “Exploring the antitumor potential of novel quinoline derivatives via tubulin polymerization inhibition in breast cancer; design, synthesis and molecular docking” (RSC Advances, 2024)

Legend:
Test in all cases: NCI-60 SRB cytotoxicity screen
Assay type in all cases: cell-based
UACC-257 (melanoma) = details: Homo sapiens; UACC-257, single dose 10 μM; read-out: growth inhibition (GI%)
PC-3 (prostate cancer) = details: PC-3, single dose 10 μM; read-out: growth inhibition (GI%)
CAKI-1 (renal cancer) = details: Homo sapiens; CAKI-1, single dose 10 μM; read-out: growth inhibition (GI%)
[1] = test system: NCI/ADR-RES (ovarian cancer); details: Homo sapiens, single dose 10 μM, read-out: growth inhibition (GI%)
786-0 (renal cancer) = details: Homo sapiens; 786-0, single dose 10 μM; read-out: growth inhibition (GI%)
A498 (renal cancer) = details: Homo sapiens; A498, single dose 10 μM; read-out: growth inhibition (GI%)
[2] = test system: EKVX (non-small cell lung cancer); details: Homo sapiens, single dose 10 μM, read-out: growth inhibition (GI%)
LOX IMVI (melanoma) = details: Homo sapiens, single dose 10 μM, read-out: growth inhibition (GI%)
KM12 (colon cancer) = details: Homo sapiens; KM12, single dose 10 μM; read-out: growth inhibition (GI%)
HCT-116 (colon cancer) = details: Homo sapiens; HCT-116, single dose 10 μM; read-out: growth inhibition (GI%)
RPMI-8226 (leukemia) = details: Homo sapiens; RPMI-8226, single dose 10 μM; read-out: growth inhibition (GI%)
M14 (melanoma) = details: Homo sapiens; M14, single dose 10 μM; read-out: growth inhibition (GI%)
IGROV1 (ovarian cancer) = details: Homo sapiens, IGROV-1; IGROV1, single dose 10 μM; read-out: growth inhibition (GI%)
MALME-3M (melanoma) = details: Homo sapiens, single dose 10 μM, read-out: growth inhibition (GI%)
[3] = test system: HOP-92 (non-small cell lung cancer); details: Homo sapiens; HOP-92, single dose 10 μM; read-out: growth inhibition (GI%)
SN12C (renal cancer) = details: Homo sapiens, single dose 10 μM, read-out: growth inhibition (GI%)
SF-295 (CNS cancer) = details: Homo sapiens; SF-295, single dose 10 μM; read-out: growth inhibition (GI%)
[4] = test system: MDA-MB-231/ATCC (breast cancer); details: Homo sapiens, MDA-MB-231, read-out: growth inhibition (GI%);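 also: growth inhibition in percent at a single 10 µM dose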
SNB-75 (CNS cancer) = details: Homo sapiens, SNB-75, SNB-75, single dose 10 μM; read-out: growth inhibition (GI%)
SW-620 (colon cancer) = details: Homo sapiens; SW-620, single dose 10 μM; read-out: growth inhibition (GI%)
TK-10 (renal cancer) = details: Homo sapiens; TK-10, single dose 10 μM; read-out: growth inhibition (GI%)
HCC-2998 (colon cancer) = details: Homo sapiens; HCC-2998, single dose 10 μM; read-out: growth inhibition (GI%)
OVCAR-3 (ovarian cancer) = details: Homo sapiens; OVCAR-3, single dose 10 μM; read-out: growth inhibition (GI%)
HT29 (colon cancer) = details: Homo sapiens, HT-29; HT29, single dose 10 μM; read-out: growth inhibition (GI%)
DU-145 (prostate cancer) = details: Homo sapiens; DU-145, single dose 10 μM; read-out: growth inhibition (GI%)
[5] = test system: NCI-H226 (non-small cell lung cancer); details: Homo sapiens; NCI-H226, single dose 10 μM; read-out: growth inhibition (GI%)
MOLT-4 (leukemia) = details: Homo sapiens; MOLT-4, single dose 10 μM; read-out: growth inhibition (GI%)
COLO 205 (colon cancer) = details: Homo sapiens; COLO 205, single dose 10 μM; read-out: growth inhibition (GI%)
SK-MEL-28 (melanoma) = details: Homo sapiens; SK-MEL-28, single dose 10 μM; read-out: growth inhibition (GI%)

Row | SMILES | inhibition at 10 µM (UACC-257 (melanoma)) [%] | inhibition at 10 µM (PC-3 (prostate cancer)) [%] | inhibition at 10 µM (CAKI-1 (renal cancer)) [%] | inhibition at 10 µM [1] [%] | inhibition at 10 µM (786-0 (renal cancer)) [%] | inhibition at 10 µM (A498 (renal cancer)) [%] | inhibition at 10 µM [2] [%] | inhibition at 10 µM (LOX IMVI (melanoma)) [%] | inhibition at 10 µM (KM12 (colon cancer)) [%] | inhibition at 10 µM (HCT-116 (colon cancer)) [%] | inhibition at 10 µM (RPMI-8226 (leukemia)) [%] | inhibition at 10 µM (M14 (melanoma)) [%] | inhibition at 10 µM (IGROV1 (ovarian cancer)) [%] | inhibition at 10 µM (MALME-3M (melanoma)) [%] | inhibition at 10 µM [3] [%] | inhibition at 10 µM (SN12C (renal cancer)) [%] | inhibition at 10 µM (SF-295 (CNS cancer)) [%] | inhibition at 10 µM [4] [%] | inhibition at 10 µM (SNB-75 (CNS cancer)) [%] | inhibition at 10 µM (SW-620 (colon cancer)) [%] | other results
1 | CCc1cccc2cc(-c3cc(-c4ccc(Br)cc4)[nH]c(=O)c3C#N)c(Cl)nc12 [Compound 4e, 6-(4-Bromophenyl)-4-(2-chloro-8-ethylquinolin-3-yl)-2-oxo-1,2-dihydropyridine-3-carbonitrile] | < 10 | < 10 | 17.6 | < 10 | < 10 | < 10 | < 10 | < 10 | < 10 | < 10 | < 10 | < 10 | < 10 | < 10 | < 10 | < 10 | < 10 | < 10 | < 10 | < 10 | inhibition at 10 µM (TK-10 (renal cancer)): < 10%; inhibition at 10 µM (HCC-2998 (colon cancer)): < 10%; inhibition at 10 µM (OVCAR-3 (ovarian cancer)): < 10%; inhibition at 10 µM (HT29 (colon cancer)): < 10%; inhibition at 10 µM (DU-145 (prostate cancer)): < 10%; inhibition at 10 µM [5]: < 10%; inhibition at 10 µM (MOLT-4 (leukemia)): < 10%; inhibition at 10 µM (COLO 205 (colon cancer)): < 10%; inhibition at 10 µM (SK-MEL-28 (melanoma)): < 10%
2 | CCc1cccc2cc(C3C=C(c4ccc(OC)cc4)NC(=S)N3)c(Cl)nc12 (centres unmarked) [Compound 6a, 4-(2-Chloro-8-ethylquinolin-3-yl)-6-(4-methoxyphenyl)-3,4-dihydropyrimidine-2(1H)-thione] | < 10 | < 10 | 16.2 | < 10 | < 10 | < 10 | < 10 | < 10 | < 10 | < 10 | < 10 | 13.2 | < 10 | < 10 | < 10 | < 10 | < 10 | < 10 | 14.9 | < 10 | inhibition at 10 µM (TK-10 (renal cancer)): < 10%; inhibition at 10 µM (HCC-2998 (colon cancer)): < 10%; inhibition at 10 µM (OVCAR-3 (ovarian cancer)): < 10%; inhibition at 10 µM (HT29 (colon cancer)): < 10%; inhibition at 10 µM (DU-145 (prostate cancer)): < 10%; inhibition at 10 µM [5]: < 10%; inhibition at 10 µM (MOLT-4 (leukemia)): < 10%; inhibition at 10 µM (COLO 205 (colon cancer)): < 10%; inhibition at 10 µM (SK-MEL-28 (melanoma)): < 10%
3 | CCc1cccc2cc(-c3cc(-c4ccc(Br)cc4)[nH]c(=S)c3C#N)c(Cl)nc12 [Compound 5e, 6-(4-Bromophenyl)-4-(2-chloro-8-ethylquinolin-3-yl)-2-thioxo-1,2-dihydropyridine-3-carbonitrile] | < 10 | < 10 | 20.1 | < 10 | < 10 | < 10 | < 10 | < 10 | < 10 | < 10 | 14.7 | 11 | < 10 | < 10 | < 10 | < 10 | < 10 | 12.9 | 19.8 | < 10 | inhibition at 10 µM (TK-10 (renal cancer)): < 10%; inhibition at 10 µM (HCC-2998 (colon cancer)): < 10%; inhibition at 10 µM (OVCAR-3 (ovarian cancer)): < 10%; inhibition at 10 µM (HT29 (colon cancer)): < 10%; inhibition at 10 µM (DU-145 (prostate cancer)): < 10%; inhibition at 10 µM [5]: < 10%; inhibition at 10 µM (MOLT-4 (leukemia)): < 10%; inhibition at 10 µM (COLO 205 (colon cancer)): < 10%; inhibition at 10 µM (SK-MEL-28 (melanoma)): < 10%
4 | CCc1cccc2cc(C3C=C(c4ccc(Br)cc4)NC(=S)N3)c(Cl)nc12 (centres unmarked) [Compound 6e, 6-(4-Bromophenyl)-4-(2-chloro-8-ethylquinolin-3-yl)-3,4-dihydropyrimidine-2(1H)-thione] | < 10 | < 10 | 10.4 | < 10 | < 10 | < 10 | < 10 | < 10 | < 10 | 10.5 | 10.7 | < 10 | < 10 | < 10 | < 10 | < 10 | < 10 | < 10 | < 10 | < 10 | inhibition at 10 µM (TK-10 (renal cancer)): < 10%; inhibition at 10 µM (HCC-2998 (colon cancer)): < 10%; inhibition at 10 µM (OVCAR-3 (ovarian cancer)): < 10%; inhibition at 10 µM (HT29 (colon cancer)): 11.9%; inhibition at 10 µM (DU-145 (prostate cancer)): < 10%; inhibition at 10 µM [5]: < 10%; inhibition at 10 µM (MOLT-4 (leukemia)): 26.2%; inhibition at 10 µM (COLO 205 (colon cancer)): < 10%; inhibition at 10 µM (SK-MEL-28 (melanoma)): < 10%
